Tested on: TNF-alpha
Test: Inhibition of TNF Release From Whole Blood
Format: cell-based
Settings: human whole blood diluted 1:2 in PBS, LPS 5 ng/ml, incubated at 37° C. overnight, TNF-alpha in supernatants by ELISA
Procedure: Human blood was freshly drawn from healthy donors and collected in vacutainers. Blood was diluted 1:2 in PBS (tissue culture, pyrogen free) in a sterile bottle and inverted to mix well. Aliquots of 0.5 ml of blood mixture were dispensed into cluster tubes in 96 well format.
Dilutions of the test compounds were prepared in RPMI by taking 100 mM DMSO stocks of the compounds and diluting 1:10 in RPMI medium in eppendorfs, to give a 10 mM stock. 1:5 serial dilutions were prepared from the stock solutions.
LPS was kept at a frozen stock (−20 degrees C.) at 1 mg/ml in PBS and then diluted to 1:10 with RPMI medium and finally diluted in the medium again 1:350. 50 μl of each test compound (first concentration was 100 uM) were added to the blood samples and then stimulated with 10 μl LPS (final concentration in the well is 5 ng/ml). The contents were gently mixed using an 8 well multi-channel pipette and incubated at 37° C. overnight. At the end of the incubation time, contents were gently mixed, then spun down at 1000×g for 5 mins at 20° C. The serum supernatants were transferred to a fresh plate without disturbing the RBCs and diluted 1:2 with the diluent RD6C.
TNF-alpha levels of supernatants were assayed using the R+D systems ELISA kit, using R+D systems protocol. Samples were read at 450 nm. The compounds shown in Table 1 were tested in the above assay. In this TNF-alpha assay, category “A” indicates an IC50 value of <500 nM. Category “B” indicates an IC50 value of 500-1000 nM. […] Category “D” indicates an IC50 value of >2000 nM.

IC50 [µM] | SMILES
1 to 2 | CC[C@@H](C(=O)NC(CC(=O)O)C(=O)COc1c(F)c(F)cc(F)c1F)n1cnc2ccccc2c1=O (stereo partly shown)
0.5 to 1 | CC[C@@H](C(=O)N[C@@H](CC(=O)O)C(=O)COc1c(F)c(F)cc(F)c1F)n1ccc2ccccc2c1=O
> 2 | CC[C@@H](C(=O)N[C@@H](CC(=O)O)C(=O)COP(=O)(c1ccccc1)c1ccccc1)n1cnc2ccccc2c1=O
< 0.5 | CC[C@@H](C(=O)NC(CC(=O)O)C(=O)CF)n1ccc2ccc(-c3ccccc3)cc2c1=O (stereo partly shown)
< 0.5 | C[C@@H](C(=O)NC(CC(=O)O)C(=O)CF)n1cnc2ccccc2c1=O (stereo partly shown) [drawing 66]
< 0.5 | C[C@@H](C(=O)NC(CC(=O)O)C(=O)CF)n1cnc2ccccc2c1=O (stereo partly shown) [drawing 34]
< 0.5 | CCC[C@@H](C(=O)NC(CC(=O)O)C(=O)CF)n1cnc2ccccc2c1=O (stereo partly shown)
1 to 2 | CC[C@@H](C(=O)NC(CC(=O)O)C(=O)COc1c(F)c(F)cc(F)c1F)n1ccc2ccc(Cl)cc2c1=O (stereo partly shown)
< 0.5 | CC[C@@H](C(=O)NC(CC(=O)O)C(=O)CF)n1ccc2ccc(Cl)cc2c1=O (stereo partly shown)
> 2 | CC[C@@H](C(=O)NC(CC(=O)O)C(=O)CF)n1cnc2ccc(Oc3cccc(Cl)c3)cc2c1=O (stereo partly shown)
< 0.5 | CC[C@@H](C(=O)NC(CC(=O)O)C(=O)CF)n1cnc2ccc(Cl)cc2c1=O (stereo partly shown)
< 0.5 | CC[C@@H](C(=O)NC(CC(=O)O)C(=O)CF)n1cnc2ccccc2c1=O (stereo partly shown)
> 2 | CC[C@@H](C(=O)NC(CC(=O)O)C(=O)CF)n1cnc2ccc(Oc3ccccc3Cl)cc2c1=O (stereo partly shown)
0.5 to 1 | CC[C@@H](C(=O)NC(CC(=O)O)C(=O)CF)n1cnc2ccc(Oc3ccccc3)cc2c1=O (stereo partly shown)
0.5 to 1 | CC[C@@H](C(=O)NC(CC(=O)O)C(=O)CF)n1ccc2ccc(C(F)(F)F)cc2c1=O (stereo partly shown)
0.5 to 1 | CC(C)[C@@H](C(=O)NC(CC(=O)O)C(=O)CF)n1cnc2ccccc2c1=O (stereo partly shown)
1 to 2 | CC[C@@H](C(=O)N[C@@H](CC(=O)O)C(=O)COc1c(F)c(F)cc(F)c1F)n1cnc2ccc(Cl)cc2c1=O
> 2 | CC[C@@H](C(=O)NC(CC(=O)O)C(=O)CF)n1cnc2ccc(Oc3cccc(F)c3)cc2c1=O (stereo partly shown)
> 2 | O=C(O)C[C@H](NC(=O)[C@@H]1CCCCN1C(=O)OCc1cc(Cl)ccc1F)C(=O)COc1c(F)c(F)cc(F)c1F
< 0.5 | CCC[C@@H](C(=O)NC(CC(=O)O)C(=O)CF)n1ccc2ccccc2c1=O (stereo partly shown)
1 to 2 | CC[C@@H](C(=O)NC(CC(=O)O)C(=O)CF)n1cnc2ccc(Sc3cccc(F)c3)cc2c1=O (stereo partly shown)
< 0.5 | CCCSc1ccc2ncn([C@@H](CC)C(=O)NC(CC(=O)O)C(=O)CF)c(=O)c2c1 (stereo partly shown)

More lines, now with the values behind:

SMILES | IC50 [µM]
C[C@@H](C(=O)NC(CC(=O)O)C(=O)CF)n1ccc2ccccc2c1=O (stereo partly shown) | 1 to 2
O=C(O)CC(NC(=O)[C@@H]1CCCCN1C(=O)c1ccc(-c2cccc(C(F)(F)F)c2)o1)C(=O)CF (stereo partly shown) [drawing 39] | > 2
O=C(O)CC(NC(=O)[C@@H]1CCCCN1C(=O)O[C@H](c1ccccc1)C(F)(F)F)C(=O)CF (stereo partly shown) [drawing 37] | < 0.5
O=C(O)CC(NC(=O)[C@@H]1CCCCN1C(=O)OCc1cc(Cl)ccc1F)C(=O)CF (stereo partly shown) [drawing 70] | < 0.5
CC(C)[C@H](OC(=O)n1c2ccccc2c2ccccc21)C(=O)NC(CC(=O)O)C(=O)CF (stereo partly shown) [drawing 36] | 1 to 2
O=C(O)CC(NC(=O)[C@@H]1CCCCN1C(=O)O[C@H](c1ccccc1)C(F)(F)F)C(=O)CF (stereo partly shown) [drawing 65] | < 0.5
C[C@H](OC(=O)Nc1ccccc1)C(=O)NC(CC(=O)O)C(=O)CF (stereo partly shown) | 0.5 to 1
O=C(O)CC(NC(=O)[C@@H]1CCCCN1C(=O)c1ccc(-c2cccc(C(F)(F)F)c2)o1)C(=O)CF (stereo partly shown) [drawing 78] | > 2
O=C(O)CC(NC(=O)[C@@H]1CCCCN1C(=O)OCc1cc(Cl)cc(Cl)c1)C(=O)CF (stereo partly shown) | 1 to 2
O=C(O)CC(NC(=O)[C@@H]1CCCc2cc3ccccc3c(=O)n21)C(=O)CF (stereo partly shown) | < 0.5
O=C(O)CC(NC(=O)[C@@H]1CCCc2nc3ccccc3c(=O)n21)C(=O)CF (stereo partly shown) | 0.5 to 1
Cc1ccccc1COC(=O)N1CCCC[C@H]1C(=O)NC(CC(=O)O)C(=O)CF (stereo partly shown) | < 0.5
CC(C)[C@H](OC(=O)n1c2ccccc2c2ccccc21)C(=O)NC(CC(=O)O)C(=O)CF (stereo partly shown) [drawing 76] | 1 to 2
CC(C)[C@H](NC(=O)OCc1ccccc1)C(=O)NC(CC(=O)O)C(=O)CF (stereo partly shown) | < 0.5
Cc1c(C(=O)N[C@H](C(=O)NC(CC(=O)O)C(=O)CF)C(C)C)n(C)c2ccccc12 (stereo partly shown) | < 0.5
O=C(O)CC(NC(=O)[C@@H]1CCCCN1C(=O)N1c2ccccc2Sc2ccc(C(F)(F)F)cc21)C(=O)CF (stereo partly shown) | > 2
O=C(O)CC(NC(=O)[C@@H]1CCCCN1C(=O)c1sc2ccccc2c1Cl)C(=O)CF (stereo partly shown) | < 0.5
Cc1cccc(COC(=O)N2CCCC[C@H]2C(=O)NC(CC(=O)O)C(=O)CF)c1 (stereo partly shown) | 0.5 to 1
O=C(O)CC(NC(=O)[C@@H]1CCCCN1C(=O)OCc1cc(Cl)ccc1F)C(=O)CF (stereo partly shown) [drawing 40] | < 0.5
CC[C@H](NC(=O)c1ncc[nH]1)C(=O)NC(CC(=O)O)C(=O)CF (stereo partly shown) | < 0.5
O=C(O)CC(NC(=O)[C@@H]1CCCCN1C(=O)OCc1cc(F)ccc1F)C(=O)CF (stereo partly shown) | < 0.5
O=C(O)CC(NC(=O)[C@@H]1CCCCN1C(=O)OCc1cccc(Cl)c1F)C(=O)CF (stereo partly shown) | < 0.5
O=C(O)CC(NC(=O)[C@@H]1CCCCN1C(=O)N1c2ccccc2Sc2ccc(Cl)cc21)C(=O)CF (stereo partly shown) | 0.5 to 1
CC(C)[C@H](OC(=O)Nc1ccccc1)C(=O)NC(CC(=O)O)C(=O)CF (stereo partly shown) | < 0.5

Reference: US7960398B2, “Regulation of TNF-alpha” (Vertex Pharmaceuticals Incorporated, priority 2002, dated 2011)
